Assay results from article PMC8922279, “Identification of β-Lactams Active against Mycobacterium tuberculosis by a Consortium of Pharmaceutical Companies and Academic Institutions” (ACS Infectious Diseases, 2022).
Read-outs that look alike come from different tables or passages of the source.

Key:
wild-type Mtb H37Rv = assay type: in vivo, 129sv DHP-1 knockout mice
[1] = female, 129sv DHP-1 knockout, mouse, in vivo
[2] = 300 mg/kg sc, uninfected DHP-1 mice
in vivo [3] = conditions: DHP-1 knockout, mouse, sc, 300 mg/kg
in vivo [4] = conditions: female, 129sv DHP-1 knockout, mouse, sc, 50 mg/kg
P. aeruginosa = assay: Microbial spectrum, P. aeruginosa; assay type: cell-based, Pseudomonas aeruginosa; conditions: clavulanate 4 μg/mL; Table S4
plasma proteins [5] = assay: Plasma protein binding (equilibrium dialysis), beagle dog; conditions: 2 μM
Caco-2 cells = assay: Caco-2 permeability / efflux transporter substrate; conditions: for Caco-2 Mean Papp A to B / Caco-2 Mean Papp B to A: 3 μM, pH 7.4, 120 min
plasma proteins [6] = assay: Plasma protein binding (equilibrium dialysis), SD rat; conditions: 2 μM
S. aureus = assay: Microbial spectrum, S. aureus; assay type: cell-based, Staphylococcus aureus; conditions: clavulanate 4 μg/mL; Table S4
[7] = In vitro plasma stability, cynomolgus monkey plasma; conditions: 2 μM, 37 °C, time point 120 min
Mtb H37Rv [8] = assay: MIC90 against nonreplicating (NR, 4-stress) Mtb H37Rv, with or without clavulanate; assay type: cell-based, Mycobacterium tuberculosis; conditions: 4-stress nonreplicating, Table S4; for Mtb H37Rv NR + CLAV (MIC90): clavulanate 4 μg/mL; for Mtb H37Rv NR (MIC90): no clavulanate
C. albicans = assay: Microbial spectrum, C. albicans; assay type: cell-based, Candida albicans; conditions: no clavulanate; Table S4
E. coli = assay: Microbial spectrum, E. coli; assay type: cell-based, Escherichia coli; conditions: clavulanate 4 μg/mL; Table S4
Mtb H37Rv [9] = assay: MIC90 against replicating (R) Mtb H37Rv, with or without clavulanate; assay type: cell-based, Mycobacterium tuberculosis; conditions: Table S4; for Mtb H37Rv R + CLAV (MIC90): clavulanate 4 μg/mL; for Mtb H37Rv R (MIC90): no clavulanate
plasma proteins [10] = assay: Plasma protein binding (equilibrium dialysis), human; conditions: 2 μM
[11] = Stability in fasted simulated intestinal fluid (FaSSIF); conditions: 10 μM, pH 6.5, room temperature
plasma proteins [12] = assay: Plasma protein binding (equilibrium dialysis), CD-1 mouse; conditions: 2 μM
plasma proteins [13] = assay: Plasma protein binding (equilibrium dialysis), cynomolgus monkey; conditions: 2 μM
[14] = In vitro plasma stability, SD rat plasma; conditions: 2 μM, 37 °C, time point 120 min
[15] = In vitro plasma stability, beagle dog plasma; conditions: 2 μM, 37 °C, time point 120 min
[16] = In vitro plasma stability, CD-1 mouse plasma; conditions: 2 μM, 37 °C, time point 120 min
[17] = In vitro plasma stability, human plasma; conditions: 2 μM, 37 °C, time point 120 min
[18] = Stability in simulated gastric fluid (SGF); conditions: 10 μM, pH 1.2, room temperature

Row | Structure (SMILES) | P.aeruginosa R + CLAV (MIC90) (P. aeruginosa) | % bound to plasma, Beagle Dog (plasma proteins [5]) | Caco-2 Mean Papp A to B (Caco-2 cells) | Caco-2 Mean Papp B to A (Caco-2 cells) | Caco-2 Mean Recovery % A to B (Caco-2 cells; Caco-2) | Caco-2 Mean Recovery % B to A (Caco-2 cells; Caco-2) | Caco-2 Rank Papp (Caco-2 cells; Caco-2) | % bound to plasma, SD Rat (plasma proteins [6]) | S.aureus R + CLAV (MIC90) (S. aureus) | Plasma stability % Remaining, Monkey [7] | Mtb H37Rv NR + CLAV (MIC90) (Mtb H37Rv [8]) | Mtb H37Rv NR (MIC90) (Mtb H37Rv [8]) | C.albicans R (MIC90) (C. albicans) | E.coli R + CLAV (MIC90) (E. coli) | Mtb H37Rv R + CLAV (MIC90) (Mtb H37Rv [9]) | Mtb H37Rv R (MIC90) (Mtb H37Rv [9]) | % bound to plasma, Human (plasma proteins [10]) | FaSSIF Stability, % remaining, 6h [11] | FaSSIF Stability, % remaining, 24h [11] | % bound to plasma, CD-1 Mouse (plasma proteins [12]) | also measured
1 | NC(C(=O)N[C@@H]1C(=O)N2C(C(=O)O)=C(CSc3cccc[n+]3[O-])CS[C@H]12)c1ccc(O)cc1 (stereo partly shown) [TBBL-0000652] | – | – | – | – | – | – | – | – | – | – | – | – | – | – | – | – | – | – | – | – | Log10 CFU per mouse (lungs), Mean (wild-type Mtb H37Rv; 50 mg/kg sc bid + clavulanate 100 mg/kg po bid, days 9-15, lungs day 16, untreated day 16 mean 9.1): 8.6 Log10 CFU; reduction of lung CFU compared to untreated control mice (wild-type Mtb H37Rv; mouse, in vivo): ~0.5 log10; Tlast [1]: 3.0 h; Comments (tolerability) [2]: Recovered at t= 8h; Tlast [2]: 2.0 to 4.0 h; AUC(0-t) (in vivo [3]): 29400 ± 32900 ng·h/mL; Cmax (in vivo [3]): 22200 ± 21700 ng/mL; Tmax (in vivo [3]): 1 to 2 h; AUC(0-t) (in vivo [4]): 11500 ng·h/mL; Cmax (in vivo [4]): 8320 ng/mL; Tmax (in vivo [4]): 1 h
2 | CNCc1ccccc1CC(=O)N[C@@H]1C(=O)N2C(C(=O)O)=C(CSc3nnnn3C)CS[C@H]12 [TBBL-0000468] | > 100 µM | 7.3% | < 0.25 10-6 cm/s | < 0.21 10-6 cm/s | < 102.74% | < 109.10% | Low | 39.1% | 8.7 µM | 101.7% | > 100 µM | > 100 µM | > 100 µM | > 100 µM | 5.4 µM | 16.4 µM | 21.1% | 83.23% | 56.36% | 1.7% | % bound to plasma, Cynomolgus Monkey (plasma proteins [13]): 21.9%; Plasma stability % Remaining, Rat [14]: 80.8%; Plasma stability % Remaining, Dog [15]: 77.2%; Plasma stability % Remaining, Mouse [16]: 72.0%; Plasma stability % Remaining, Human [17]: 73.6%; SGF Stability, % remaining, 1h [18]: 101.42%; SGF Stability, % remaining, 24h [18]: 49.27%
3 | Cn1nnnc1SCC1=C(C(=O)O)N2C(=O)[C@@H](NC(=O)Cc3ccc(C4=NCCCN4)cc3)[C@H]2SC1 [TBBL-0000309] | > 100 µM | 0.0% | 0.18 10-6 cm/s | 0.38 10-6 cm/s | 99.65% | 104.93% | Low | 38.2% | 1.8 µM | 104.7% | > 100 µM | > 100 µM | > 100 µM | 20.6 µM | 0.7 µM | 29.6 µM | 24.6% | 95.78% | 77.15% | 4.1% | Caco-2 Efflux Ratio (Caco-2 cells; Caco-2): 2.12; Efflux Transporter Substrate (Caco-2 cells; Caco-2): Likely; % bound to plasma, Cynomolgus Monkey (plasma proteins [13]): 29.4%; Plasma stability % Remaining, Rat [14]: 79.8%; Plasma stability % Remaining, Dog [15]: 77.8%; Plasma stability % Remaining, Mouse [16]: 68.8%; Plasma stability % Remaining, Human [17]: 79.0%; SGF Stability, % remaining, 1h [18]: 103.51%; SGF Stability, % remaining, 24h [18]: 60.13%
